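Dose response: 5 concentrations. Exposure: 48 h. Format: 96-well plates. Endpoint: linear interpolation; highest concentration if not reached. At the TGI there is no net growth.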
How the values were obtained:
Assay in all cases: inhibition of tumour cell growth, NCI panel, 48 h
SW-620 colon = system: SW-620 colon
HS 578T breast = system: HS 578T breast
SK-MEL-5 melanoma = system: SK-MEL-5 melanoma
SNB-19 CNS = system: SNB-19 CNS
SK-MEL-28 melanoma = system: SK-MEL-28 melanoma
MDA-N = system: MDA-N
RXF 393 renal = system: RXF 393 renal
OVCAR-3 ovarian = system: OVCAR-3 ovarian
MDA-MB-231 breast = system: MDA-MB-231 breast
DU-145 prostate = system: DU-145 prostate
MCF7 breast = system: MCF7 breast
NCI-H460 lung = system: NCI-H460 lung
HCC-2998 colon = system: HCC-2998 colon
RPMI-8226 leukemia = system: RPMI-8226 leukemia
COLO 205 colon = system: COLO 205 colon
MDA-MB-435 = system: MDA-MB-435
NCI-H23 lung = system: NCI-H23 lung
OVCAR-5 ovarian = system: OVCAR-5 ovarian
OVCAR-8 ovarian = system: OVCAR-8 ovarian
K-562 leukemia = system: K-562 leukemia
HT29 colon = system: HT29 colon
PC-3 prostate = system: PC-3 prostate
T-47D breast = system: T-47D breast
SF-268 CNS = system: SF-268 CNS
SNB-75 CNS = system: SNB-75 CNS
BT-549 breast = system: BT-549 breast
IGROV1 ovarian = system: IGROV1 ovarian
HOP-62 NSCLC = system: HOP-62 NSCLC
HL-60(TB) leukemia = system: HL-60(TB) leukemia
NCI-H226 lung = system: NCI-H226 lung
MALME-3M melanoma = system: MALME-3M melanoma
SF-539 CNS = system: SF-539 CNS
NCI/ADR-RES ovarian = system: NCI/ADR-RES ovarian
ACHN renal = system: ACHN renal
KM12 colon = system: KM12 colon
TK-10 renal = system: TK-10 renal
U251 CNS = system: U251 CNS
M14 melanoma = system: M14 melanoma
HCT-15 colon = system: HCT-15 colon
CCRF-CEM leukemia = system: CCRF-CEM leukemia
SF-295 CNS = system: SF-295 CNS
SR leukemia = system: SR leukemia
UO-31 renal = system: UO-31 renal
786-0 renal = system: 786-0 renal
A549 NSCLC = system: A549 NSCLC
NCI-H522 lung = system: NCI-H522 lung
SN12C renal = system: SN12C renal
LOX IMVI melanoma = system: LOX IMVI melanoma
UACC-257 melanoma = system: UACC-257 melanoma
UACC-62 melanoma = system: UACC-62 melanoma
CAKI-1 renal = system: CAKI-1 renal
MOLT-4 leukemia = system: MOLT-4 leukemia
OVCAR-4 ovarian = system: OVCAR-4 ovarian
SK-OV-3 ovarian = system: SK-OV-3 ovarian
A498 renal = system: A498 renal
EKVX NSCLC = system: EKVX NSCLC
HOP-92 NSCLC = system: HOP-92 NSCLC
HCT-116 colon = system: HCT-116 colon
SK-MEL-2 melanoma = system: SK-MEL-2 melanoma

## c1ccc2c(OCC3CO3)ccc(OCC3CO3)c2c1 (stereo unspecified)
SW-620 colon
  TGI: 4.03 µM
HS 578T breast
  TGI: 9.73 µM
SK-MEL-5 melanoma
  TGI: 19 µM
SNB-19 CNS
  TGI: 21 µM
SK-MEL-28 melanoma
  TGI: 21.5 µM
MDA-N
  TGI: 13 µM
RXF 393 renal
  TGI: 7.71 µM
OVCAR-3 ovarian
  TGI: 6.75 µM
MDA-MB-231 breast
  TGI: 22.3 µM
DU-145 prostate
  TGI: 5.47 µM
MCF7 breast
  TGI: 4.66 µM
NCI-H460 lung
  TGI: 12.5 µM
HCC-2998 colon
  TGI: 24.1 µM
RPMI-8226 leukemia
  TGI: 9.44 µM
COLO 205 colon
  TGI: 23 µM
MDA-MB-435
  TGI: 7.74 µM
NCI-H23 lung
  TGI: 6.67 µM
OVCAR-5 ovarian
  TGI: 23.3 µM
OVCAR-8 ovarian
  TGI: 10.4 µM
K-562 leukemia
  TGI: 16.8 µM
HT29 colon
  TGI: 17.5 µM
PC-3 prostate
  TGI: 17.1 µM
T-47D breast
  TGI: 15.4 µM
SF-268 CNS
  TGI: 12.1 µM
SNB-75 CNS
  TGI: 28.4 µM
BT-549 breast
  TGI: 18.8 µM
IGROV1 ovarian
  TGI: 16 µM
HOP-62 NSCLC
  TGI: 10.9 µM
HL-60(TB) leukemia
  TGI: 2.4 µM
NCI-H226 lung
  TGI: 27.7 µM
MALME-3M melanoma
  TGI: 20.5 µM
SF-539 CNS
  TGI: 4.8 µM
NCI/ADR-RES ovarian
  TGI: 31.1 µM
ACHN renal
  TGI: 6.48 µM
KM12 colon
  TGI: 16.1 µM
TK-10 renal
  TGI: 26.7 µM
U251 CNS
  TGI: 6.32 µM
M14 melanoma
  TGI: 13.3 µM
HCT-15 colon
  TGI: 14.9 µM
CCRF-CEM leukemia
  TGI: 11.2 µM
SF-295 CNS
  TGI: 14.1 µM
SR leukemia
  TGI: 11.1 µM
UO-31 renal
  TGI: 3.15 µM
786-0 renal
  TGI: 5.57 µM
A549 NSCLC
  TGI: 16.9 µM
NCI-H522 lung
  TGI: 22.5 µM
SN12C renal
  TGI: 11.5 µM
LOX IMVI melanoma
  TGI: 2.08 µM
UACC-257 melanoma
  TGI: 20 µM
UACC-62 melanoma
  TGI: 12.2 µM
CAKI-1 renal
  TGI: 3.32 µM
MOLT-4 leukemia
  TGI: 2.99 µM
OVCAR-4 ovarian
  TGI: 21 µM
SK-OV-3 ovarian
  TGI: 26.6 µM
A498 renal
  TGI: 33.9 µM
EKVX NSCLC
  TGI: 32.7 µM
HOP-92 NSCLC
  TGI: 18.4 µM
HCT-116 colon
  TGI: 2.76 µM

## COc1c(C(CC(C)C)OC(C)=O)ccc2c1C(=O)OCc1cc(C)cc(O)c1O2 (stereo unspecified)
SW-620 colon
  TGI: 31.5 µM
HS 578T breast
  TGI: 50.4 µM
SK-MEL-5 melanoma
  TGI: 23.2 µM
SNB-19 CNS
  TGI: 28.7 µM
SK-MEL-28 melanoma
  TGI: 29.4 µM
MDA-N
  TGI: 29.9 µM
RXF 393 renal
  TGI: 34 µM
OVCAR-3 ovarian
  TGI: 22.3 µM
DU-145 prostate
  TGI: 25.8 µM
MCF7 breast
  TGI: 25.6 µM
NCI-H460 lung
  TGI: 26.8 µM
HCC-2998 colon
  TGI: 25.4 µM
RPMI-8226 leukemia
  TGI: > 100 µM
COLO 205 colon
  TGI: 31.8 µM
MDA-MB-435
  TGI: 26.6 µM
NCI-H23 lung
  TGI: 23.3 µM
OVCAR-5 ovarian
  TGI: 28.4 µM
OVCAR-8 ovarian
  TGI: 33.1 µM
K-562 leukemia
  TGI: > 100 µM
HT29 colon
  TGI: 32.2 µM
PC-3 prostate
  TGI: 21.6 µM
T-47D breast
  TGI: 23.6 µM
SF-268 CNS
  TGI: 27.9 µM
SNB-75 CNS
  TGI: 42.1 µM
BT-549 breast
  TGI: 30 µM
IGROV1 ovarian
  TGI: 30.4 µM
HOP-62 NSCLC
  TGI: 32.8 µM
HL-60(TB) leukemia
  TGI: > 100 µM
NCI-H226 lung
  TGI: 30 µM
MALME-3M melanoma
  TGI: 29.8 µM
SK-MEL-2 melanoma
  TGI: 33.4 µM
SF-539 CNS
  TGI: 32.9 µM
NCI/ADR-RES ovarian
  TGI: 32.2 µM
ACHN renal
  TGI: 23.2 µM
KM12 colon
  TGI: 35.4 µM
TK-10 renal
  TGI: 31.8 µM
U251 CNS
  TGI: 28.1 µM
M14 melanoma
  TGI: 31.3 µM
HCT-15 colon
  TGI: 23.5 µM
CCRF-CEM leukemia
  TGI: > 100 µM
SF-295 CNS
  TGI: 27.8 µM
SR leukemia
  TGI: > 100 µM
UO-31 renal
  TGI: 19.7 µM
786-0 renal
  TGI: 29.2 µM
A549 NSCLC
  TGI: 25.8 µM
NCI-H522 lung
  TGI: 26.2 µM
SN12C renal
  TGI: 27.2 µM
LOX IMVI melanoma
  TGI: 27.8 µM
UACC-257 melanoma
  TGI: 21.6 µM
UACC-62 melanoma
  TGI: 25.5 µM
CAKI-1 renal
  TGI: 32.2 µM
MOLT-4 leukemia
  TGI: > 100 µM
OVCAR-4 ovarian
  TGI: 27.1 µM
SK-OV-3 ovarian
  TGI: 31 µM
A498 renal
  TGI: 34.7 µM
EKVX NSCLC
  TGI: 24.1 µM
HOP-92 NSCLC
  TGI: 24.5 µM
HCT-116 colon
  TGI: 25.1 µM

## COc1ccc(OC)c2sc(N3C(=O)/C(=C/c4ccccc4S)N=C3c3ccccc3)nc12
SW-620 colon
  TGI: > 100 µM
HS 578T breast
  TGI: > 100 µM
SK-MEL-5 melanoma
  TGI: 40.6 µM
SNB-19 CNS
  TGI: > 100 µM
SK-MEL-28 melanoma
  TGI: > 100 µM
MDA-N
  TGI: 49.5 µM
RXF 393 renal
  TGI: 58.5 µM
OVCAR-3 ovarian
  TGI: > 100 µM
MDA-MB-231 breast
  TGI: > 100 µM
DU-145 prostate
  TGI: > 100 µM
MCF7 breast
  TGI: 36.5 µM
NCI-H460 lung
  TGI: > 100 µM
HCC-2998 colon
  TGI: > 100 µM
RPMI-8226 leukemia
  TGI: 58.4 µM
COLO 205 colon
  TGI: > 100 µM
MDA-MB-435
  TGI: 52 µM
OVCAR-5 ovarian
  TGI: > 100 µM
OVCAR-8 ovarian
  TGI: > 100 µM
K-562 leukemia
  TGI: > 100 µM
HT29 colon
  TGI: > 100 µM
PC-3 prostate
  TGI: 56.5 µM
T-47D breast
  TGI: > 100 µM
SF-268 CNS
  TGI: > 100 µM
SNB-75 CNS
  TGI: 57.2 µM
BT-549 breast
  TGI: > 100 µM
IGROV1 ovarian
  TGI: > 100 µM
HOP-62 NSCLC
  TGI: > 100 µM
HL-60(TB) leukemia
  TGI: 79.3 µM
SK-MEL-2 melanoma
  TGI: 78.8 µM
SF-539 CNS
  TGI: 85.4 µM
NCI/ADR-RES ovarian
  TGI: > 100 µM
ACHN renal
  TGI: > 100 µM
KM12 colon
  TGI: > 100 µM
TK-10 renal
  TGI: > 100 µM
U251 CNS
  TGI: 73.8 µM
M14 melanoma
  TGI: > 100 µM
HCT-15 colon
  TGI: > 100 µM
CCRF-CEM leukemia
  TGI: 42.5 µM
SF-295 CNS
  TGI: > 100 µM
SR leukemia
  TGI: 35.2 µM
UO-31 renal
  TGI: 77.2 µM
786-0 renal
  TGI: > 100 µM
A549 NSCLC
  TGI: > 100 µM
SN12C renal
  TGI: 81.9 µM
LOX IMVI melanoma
  TGI: 60.4 µM
UACC-257 melanoma
  TGI: > 100 µM
UACC-62 melanoma
  TGI: 52.2 µM
CAKI-1 renal
  TGI: > 100 µM
MOLT-4 leukemia
  TGI: 35 µM
OVCAR-4 ovarian
  TGI: > 100 µM
SK-OV-3 ovarian
  TGI: > 100 µM
A498 renal
  TGI: > 100 µM
EKVX NSCLC
  TGI: > 100 µM
HOP-92 NSCLC
  TGI: > 100 µM
HCT-116 colon
  TGI: 78.2 µM
